Measurements as given in ChEMBL document CHEMBL4673352, “Discovery of AZD4573, a Potent and Selective Inhibitor of CDK9 That Enables Short Duration of Target Engagement for the Treatment of Hematological Malignancies” (J Med Chem, 2020).
Values after ≈ are worked out from the molar mass of the structure shown.

Key:
CDK9/cyclin T1 = CDK9/cyclin T1 (Homo sapiens, UniProt P50750); assay: Inhibition of recombinant full length human N-terminal GST-fused CDK9 (1 to 372 residues)/His-tagged CyclinT1 (1 to 726 residues) expressed in baculovirus infected insect cells using FITC-X-GSRTPMY-NH2 as substrate preincubated for 10 mins followed by MgCl2 addition and measured after 90 mins in presence of 5 mM ATP by mobility shift assay
Sequence of CDK9/cyclin T1 (O60563 whole entry, the tested form may be a part): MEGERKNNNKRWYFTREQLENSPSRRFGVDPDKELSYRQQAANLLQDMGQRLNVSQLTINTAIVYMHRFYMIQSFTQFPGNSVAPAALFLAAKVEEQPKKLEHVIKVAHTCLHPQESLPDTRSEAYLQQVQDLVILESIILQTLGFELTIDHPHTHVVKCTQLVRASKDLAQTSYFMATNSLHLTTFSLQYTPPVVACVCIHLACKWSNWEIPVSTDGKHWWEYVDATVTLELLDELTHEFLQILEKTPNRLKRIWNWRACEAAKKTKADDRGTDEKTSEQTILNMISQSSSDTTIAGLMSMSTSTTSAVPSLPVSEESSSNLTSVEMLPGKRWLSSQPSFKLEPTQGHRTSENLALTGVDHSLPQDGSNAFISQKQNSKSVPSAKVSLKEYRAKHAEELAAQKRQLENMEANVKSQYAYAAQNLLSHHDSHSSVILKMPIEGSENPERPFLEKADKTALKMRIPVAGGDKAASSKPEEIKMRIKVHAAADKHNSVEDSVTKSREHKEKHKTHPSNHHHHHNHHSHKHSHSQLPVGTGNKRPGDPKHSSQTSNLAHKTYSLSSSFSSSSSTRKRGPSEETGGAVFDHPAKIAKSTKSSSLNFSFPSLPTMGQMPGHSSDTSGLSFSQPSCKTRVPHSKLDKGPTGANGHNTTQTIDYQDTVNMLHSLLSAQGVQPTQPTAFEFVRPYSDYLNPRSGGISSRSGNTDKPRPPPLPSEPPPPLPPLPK
Sequence of CDK9/cyclin T1 (P50750 whole entry, the tested form may be a part): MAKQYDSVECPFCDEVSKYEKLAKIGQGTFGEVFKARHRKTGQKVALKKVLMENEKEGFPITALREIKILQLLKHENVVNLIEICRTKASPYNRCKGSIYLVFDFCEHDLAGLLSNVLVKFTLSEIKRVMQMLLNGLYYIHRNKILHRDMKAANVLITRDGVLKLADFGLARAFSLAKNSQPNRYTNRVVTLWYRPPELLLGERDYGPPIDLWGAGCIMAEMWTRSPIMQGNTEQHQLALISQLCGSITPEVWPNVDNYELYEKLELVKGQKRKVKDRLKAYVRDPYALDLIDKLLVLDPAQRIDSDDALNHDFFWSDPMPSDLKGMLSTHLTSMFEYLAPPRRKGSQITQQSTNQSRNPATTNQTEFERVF

[1] = target: T1, Cyclin-dependent kinase 9 (Homo sapiens, UniProt P50750); assay: Inhibition of CDK9 in human MCF7 cells assessed as reduction in RNA Polymerase 2 CTD phosphorylation at Ser2 residues measured after 6 hrs by immunofluorescence assay; assay type: cell-based
T1 sequence (P50750 whole entry): as the sequence (P50750 whole entry, the tested form may be a part) above

[2] = target: T1, Cyclin-dependent kinase 9; assay: Inhibition of CDK9 in human MV4-11 cells assessed as induction of caspase-3/7 activation measured after 6 hrs followed by Caspase-glo reagent based assay; assay type: cell-based
[3] = Lipophilicity, log D of compound in buffer/octanol at pH 7.4 by shake flask method; assay type: physicochemical
[4] = Intrinsic clearance in rat cryopreserved hepatocytes assessed per million cells […]; assay type: ADME, cell-based, Hepatocyte; settings: for hepatocyte CLint: cryopreserved hepatocytes, read-out: CLH
[5] = Solubility of compound in phosphate buffer at pH 7.4 using dried form of sample; assay type: physicochemical
[6] = Intrinsic clearance in human cryopreserved hepatocytes assessed per million cells […]; assay type: ADME, cell-based, Hepatocyte; settings: read-out: CLH
[7] = Intrinsic clearance in human liver microsome; assay type: ADME, microsomes; settings: for microsomal CLint: liver microsomes, read-out: CLH
[8] = phosphate buffer, read-out: solubility

Row | Structure (SMILES) | IC50 (CDK9/cyclin T1) [nM] | IC50 [1] [nM] | EC50 [2] [nM] | logD [3] | hepatocyte CLint [4] [µL/min/1e6 cells] | solubility [5, 8] [µM] | hepatocyte CLint [6] [µL/min/1e6 cells] | microsomal CLint [7] [µL/min/mg] | solubility ([5]; buffer) [µM] | CLH ([4]; hepatocytes) [µL/min] | CLH ([7]; microsomes) [µL/min/mg]
1 | CC(=O)N[C@@H]1CCC[C@H](C(=O)Nc2cc(-c3cnn4c3CN(C)CC4)c(Cl)cn2)C1 | 220 | 800 | 910 | 2.1 | 7.7 | 870 (≈ 375 µg/mL) | – | < 3 | – | – | –
2 | CC(=O)N[C@@H]1CCC[C@H](C(=O)Nc2cc(-c3cn[nH]c3CC(C)(C)CO)c(Cl)cn2)C1 | – | > 2300 | – | – | – | – | < 1 | 24 | – | – | –
3 | CC(=O)N[C@@H]1CCC[C@H](C(=O)Nc2cc(-c3cnn4c3NCCC4)c(Cl)cn2)C1 | – | 860 | 670 | 2.4 | 10 | 860 (≈ 359 µg/mL) | – | 6.2 | – | – | –
4 | CC(=O)N[C@@H]1CCC[C@H](C(=O)Nc2cc(-c3cnc(C)n3C)c(Cl)cn2)C1 | 5300 | > 3000 | – | 2.2 | – | > 1000 | – | – | – | – | –
5 | CC(=O)N[C@@H]1CCC[C@H](C(=O)Nc2cc(-c3cnc4n3CCC4)c(Cl)cn2)C1 | 310 | 760 | 700 | 2.6 | 19 | 490 (≈ 197 µg/mL) | – | 9.7 | – | – | –
6 | CC(=O)N[C@@H]1CCC[C@H](C(=O)Nc2cc(-c3cnc4ccccn34)c(Cl)cn2)C1 | 750 | 1600 | – | 3 | – | 120 (≈ 49.4 µg/mL) | – | – | – | – | –
7 | CC(=O)N[C@@H]1CCC[C@H](C(=O)Nc2cc(-c3cnc4n3CC(C)(C)C4)c(Cl)cn2)C1 | – | – | – | 3.6 | 28 | 280 (≈ 120 µg/mL) | 2.5 | 63 | – | – | –
8 | CC(=O)N[C@@H]1CCC[C@H](C(=O)Nc2cc(-c3cnn4c3CCC4)c(Cl)cn2)C1 | 180 | 530 | 330 | 2.9 | 72 | 160 (≈ 64.3 µg/mL) | – | < 3 | – | – | –
9 | CC(=O)N[C@@H]1CCC[C@H](C(=O)Nc2cc(-c3cnn4c3CCCC4)ccn2)C1 | 230 | 520 | 440 | 2.4 | 33 | 730 (≈ 278 µg/mL) | – | < 3 | – | – | –
10 | CC(=O)N[C@@H]1CCC[C@H](C(=O)Nc2cc(-c3cnn4c3CC(C)(C)C4)c(C)cn2)C1 | – | – | – | 3.1 | 53 | 600 (≈ 246 µg/mL) | – | 19 | – | – | –
11 | CC(=O)N[C@@H]1CCC[C@H](C(=O)Nc2cc(-c3cnc(C)n3C(C)C)ccn2)C1 | 380 | 920 | 660 | 1.9 | 7.4 | 660 (≈ 253 µg/mL) | – | 3.6 | – | – | –
12 | CC(=O)N[C@@H]1CCC[C@H](C(=O)Nc2cc(-c3cnn4c3COCC4)c(Cl)cn2)C1 | 1000 | 2100 | 1900 | 2.4 | 18 | 220 (≈ 91.9 µg/mL) | – | < 3 | – | – | –
13 | CC(=O)N[C@@H]1CCC[C@H](C(=O)Nc2cc(-c3cnc4n3CCCC4)c(Cl)cn2)C1 | 660 | 1200 | 1200 | 2.7 | 12 | 600 (≈ 250 µg/mL) | – | 16 | – | – | –
14 | CC(=O)N[C@@H]1CCC[C@H](C(=O)Nc2cc(-c3nnn4c3CCCC4)c(Cl)cn2)C1 | 4400 | > 2600 | – | 2 | – | 530 (≈ 221 µg/mL) | – | – | – | – | –

The remaining compounds from weak to strong by IC50 [1], led by results:

Row | IC50 (CDK9/cyclin T1) [nM] | IC50 [1] [nM] | EC50 [2] [nM] | logD [3] | hepatocyte CLint [4] [µL/min/1e6 cells] | solubility [5, 8] [µM] | hepatocyte CLint [6] [µL/min/1e6 cells] | microsomal CLint [7] [µL/min/mg] | solubility ([5]; buffer) [µM] | CLH ([4]; hepatocytes) [µL/min] | CLH ([7]; microsomes) [µL/min/mg] | Structure (SMILES)
15 | 110 | 350 | 260 | 2.6 | 34 | 110 (≈ 46 µg/mL) | – | < 3 | – | – | – | CC(=O)N[C@@H]1CCC[C@H](C(=O)Nc2cc(-c3cnn4c3OCCC4)c(Cl)cn2)C1
16 | 20 | 170 | – | – | – | – | 48 | 14 | – | – | – | CC(=O)N[C@@H]1CCC[C@H](C(=O)Nc2cc(-c3cnn4c3CC(C)(C)C4O)c(Cl)cn2)C1 (stereo not given in full)
17 | 29 | 150 | 100 | 2.8 | 45 | 970 (≈ 384 µg/mL) | < 1 | < 3 | – | – | – | CC(=O)N[C@@H]1CCC[C@H](C(=O)Nc2cc(-c3cnn4c3CC(C)(C)C4)ccn2)C1
18 | – | 150 | 140 | 3.2 | 47 | 380 (≈ 160 µg/mL) | < 1 | 26 | – | – | – | CC(=O)N[C@@H]1CCC[C@H](C(=O)Nc2cc(-c3cnn4c3CC(C)(C)C4)c(C#N)cn2)C1
19 | 61 | 140 | 150 | 3.6 | – | 45 (≈ 18.5 µg/mL) | – | – | – | – | – | CC(=O)N[C@@H]1CCC[C@H](C(=O)Nc2cc(-c3cnn4ccccc34)c(Cl)cn2)C1
20 | – | 100 | 160 | 2.9 | 73 | > 1000 | – | < 3 | – | – | – | CC(=O)N[C@@H]1CCC[C@H](C(=O)Nc2cc(-c3cnn4c3CCCC4)c(F)cn2)C1
21 | – | 92 | 180 | 3.6 | 51 | 104 (≈ 44.7 µg/mL) | 4.6 | 39 | – | – | – | CC(=O)N[C@@H]1CCC[C@H](C(=O)Nc2cc(-c3cnn4c3CCCCC4)c(Cl)cn2)C1
22 | 27 | 77 | 77 | – | – | – | – | – | 159 (≈ 66.1 µg/mL) | 85 | 18 | CC(=O)N[C@@H]1CCC[C@H](C(=O)Nc2cc(-c3cnn4c3CC(C)C4)c(Cl)cn2)C1 (stereo in doubt; 27)
23 | – | 48 | 39 | 3.1 | 35 | 640 (≈ 262 µg/mL) | 4.3 | 29 | – | – | – | CC(=O)N[C@@H]1CCC[C@H](C(=O)Nc2cc(-c3cnn4c3CC(C)(C)CC4)ccn2)C1
24 | – | 44 | 38 | 3.2 | 157 | 15 (≈ 5.41 µg/mL) | 106 | 25 | – | – | – | CC1(C)Cc2c(-c3cc(NC(=O)[C@H]4C[C@@H](O)C4)ncc3Cl)cnn2C1
25 | – | 40 | 15 | 3.5 | 97 | 35 (≈ 14.6 µg/mL) | 5.8 | 38 | – | – | – | CC(=O)N[C@@H]1CC[C@H](C(=O)Nc2cc(-c3cnn4c3CC(C)(C)C4)c(Cl)cn2)C1
26 | 26 | 36 | 92 | 3.4 | 97 | – | – | 13 | 79 (≈ 32.9 µg/mL) | – | – | CC(=O)N[C@@H]1CCC[C@H](C(=O)Nc2cc(-c3cnn4c3CC(C)C4)c(Cl)cn2)C1 (stereo in doubt; 28)
27 | < 3 | 10 | 15 | 3.6 | 42 | 160 (≈ 68.4 µg/mL) | 23 | 178 | – | – | – | CC(=O)N[C@@H]1CCC[C@H](C(=O)Nc2cc(-c3cnn4c3CC(C)(C)CC4)c(F)cn2)C1
